Experimental data as given in US7592345B2, “Piperazine and [1,4]diazepan derivatives as NK antagonists” (Hoffmann-La Roche Inc., priority 2007, dated 2009).

Each compound was assayed against T1, recombinant human NK3 receptor (Homo sapiens, UniProt P29371) (assay: [3H]SR142801 competition binding assay). Conditions: [3H]SR142801, membranes from HEK293 cells transiently expressing recombinant human NK3 receptor; read-out: hNK3 Ki.
T1 construct: expressed in transfected cells; host or cells: HEK293 cells (transient expression), membranes
T1 sequence (P29371 1-465): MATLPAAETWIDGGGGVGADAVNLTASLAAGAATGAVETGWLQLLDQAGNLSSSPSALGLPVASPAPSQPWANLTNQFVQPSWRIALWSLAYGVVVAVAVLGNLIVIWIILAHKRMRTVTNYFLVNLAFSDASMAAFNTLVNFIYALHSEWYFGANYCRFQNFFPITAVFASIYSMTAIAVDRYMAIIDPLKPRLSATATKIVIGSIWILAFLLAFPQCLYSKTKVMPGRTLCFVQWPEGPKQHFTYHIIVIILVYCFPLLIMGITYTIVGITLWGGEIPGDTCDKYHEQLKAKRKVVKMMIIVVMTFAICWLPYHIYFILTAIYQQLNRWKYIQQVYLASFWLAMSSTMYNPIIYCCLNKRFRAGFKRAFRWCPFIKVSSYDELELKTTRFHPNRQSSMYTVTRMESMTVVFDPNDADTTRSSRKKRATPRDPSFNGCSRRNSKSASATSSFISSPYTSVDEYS
Procedure, shortened: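 Membranes from HEK293 cells transiently expressing human NK3 were incubated 75 min at RT with [3H]SR142801 at its KD and inhibitor (0.0003-10 μM) in Tris-HCl pH 7.4/MnCl2/phosphoramidon/BSA. Nonspecific binding used 10 μM SB222200. Ki from Hill-fitted IC50 via Cheng-Prusoff, duplicate determinations.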
`CC(CCN1CCCN(S(C)(=O)=O)CC1)(C(=O)NCc1ccc(C(F)(F)F)c(F)c1)c1ccc(Cl)c(Cl)c1` (stereo not shown) [Example 95, 2-(3,4-Dichloro-phenyl)-N-(3-fluoro-4-trifluoromethyl-benzyl)-4-(4-methanesulfonyl-[1,4]diazepan-1-yl)-2-methyl-butyramide] was tested, and the Ki was 64.3 nM. `CN(Cc1ccc(C(F)(F)F)cc1)C(=O)C(C)(CCN1CCCN(S(C)(=O)=O)CC1)c1ccc(Cl)c(Cl)c1` (stereo not shown) [Example 96, 2-(3,4-Dichloro-phenyl)-4-(4-methanesulfonyl-[1,4]diazepan-1-yl)-2,N-dimethyl-N-(4-trifluoromethyl-benzyl)-butyramide] showed a Ki of 24.5 nM. With `CN(Cc1ccc(Cl)cc1)C(=O)C(C)(CCN1CCCN(S(C)(=O)=O)CC1)c1ccc(Cl)c(Cl)c1` (stereo not shown) [Example 97, N-(4-Chloro-benzyl)-2-(3,4-dichloro-phenyl)-4-(4-methanesulfonyl-[1,4]diazepan-1-yl)-2,N-dimethyl-butyramide] the Ki was 29.9 nM. Work on `CC(CCN1CCCN(S(C)(=O)=O)CC1)(C(=O)NCc1ccc(Cl)c(F)c1)c1ccc(Cl)c(Cl)c1` (stereo not shown) [Example 98, N-(4-Chloro-3-fluoro-benzyl)-2-(3,4-dichloro-phenyl)-4-(4-methanesulfonyl-[1,4]diazepan-1-yl)-2-methyl-butyramide] yielded a Ki of 66 nM. In the case of `CC(CCN1CCCN(S(C)(=O)=O)CC1)(C(=O)NCc1ccc(OC(F)(F)F)cc1)c1ccc(Cl)c(Cl)c1` (stereo not shown) [Example 99, 2-(3,4-Dichloro-phenyl)-4-(4-methanesulfonyl-[1,4]diazepan-1-yl)-2-methyl-N-(4-trifluoromethoxy-benzyl)-butyramide], the Ki is reported as 128 nM. In the case of `CN(Cc1cccc(F)c1)C(=O)C(C)(CCN1CCCN(S(C)(=O)=O)CC1)c1ccc(Cl)c(Cl)c1` (stereo not shown) [Example 100, 2-(3,4-Dichloro-phenyl)-N-(3-fluoro-benzyl)-4-(4-methanesulfonyl-[1,4]diazepan-1-yl)-2,N-dimethyl-butyramide], the Ki is reported as 96.5 nM. `CN(Cc1cccc(C(F)(F)F)c1)C(=O)C(C)(CCN1CCCN(S(C)(=O)=O)CC1)c1ccc(Cl)c(Cl)c1` (stereo not shown) [Example 101, 2-(3,4-Dichloro-phenyl)-4-(4-methanesulfonyl-[1,4]diazepan-1-yl)-2,N-dimethyl-N-(3-trifluoromethyl-benzyl)-butyramide] was tested, and the Ki was 18.4 nM. `CC(CCN1CCCN(S(C)(=O)=O)CC1)(C(=O)NCc1cccc(OC(F)(F)F)c1)c1ccc(Cl)c(Cl)c1` (stereo not shown) [Example 102, 2-(3,4-Dichloro-phenyl)-4-(4-methanesulfonyl-[1,4]diazepan-1-yl)-2-methyl-N-(3-trifluoromethoxy-benzyl)-butyramide] showed a Ki of 123 nM. For `CN(Cc1cccc(Cl)c1)C(=O)C(C)(CCN1CCCN(S(C)(=O)=O)CC1)c1ccc(Cl)c(Cl)c1` (stereo not shown) [Example 103, N-(3-Chloro-benzyl)-2-(3,4-dichloro-phenyl)-4-(4-methanesulfonyl-[1,4]diazepan-1-yl)-2,N-dimethyl-butyramide], the Ki was 41.8 nM. `COc1ccc(CN(C)C(=O)C(C)(CCN2CCCN(S(C)(=O)=O)CC2)c2ccc(Cl)c(Cl)c2)cc1F` (stereo not shown) [Example 104, 2-(3,4-Dichloro-phenyl)-N-(3-fluoro-4-methoxy-benzyl)-4-(4-methanesulfonyl-[1,4]diazepan-1-yl)-2,N-dimethyl-butyramide] was tested, and the Ki was 60.2 nM. `COc1ccc(C(NC(=O)C(C)(CCN2CCCN(S(C)(=O)=O)CC2)c2ccc(Cl)c(Cl)c2)C2CC2)cc1` (stereo not shown) [Example 105, N-[Cyclopropyl-(4-methoxy-phenyl)-methyl]-2-(3,4-dichloro-phenyl)-4-(4-methanesulfonyl-[1,4]diazepan-1-yl)-2-methyl-butyramide] was tested, and the Ki was 134 nM. In the case of `CN(Cc1ccc(F)c(C(F)(F)F)c1)C(=O)C(C)(CCN1CCCN(S(C)(=O)=O)CC1)c1ccc(Cl)c(Cl)c1` (stereo not shown) [Example 106, 2-(3,4-Dichloro-phenyl)-N-(4-fluoro-3-trifluoromethyl-benzyl)-4-(4-methanesulfonyl-[1,4]diazepan-1-yl)-2,N-dimethyl-butyramide], the Ki is reported as 9.2 nM. In the case of `CC(CCN1CCCN(S(C)(=O)=O)CC1)(C(=O)NCc1cc(C(F)(F)F)cc(C(F)(F)F)c1)c1ccc(Cl)c(Cl)c1` (stereo not shown) [Example 107, N-(3,5-Bis-trifluoromethyl-benzyl)-2-(3,4-dichloro-phenyl)-4-(4-methanesulfonyl-[1,4]diazepan-1-yl)-2-methyl-butyramide], the Ki is reported as 209 nM. Work on `COc1cc(CN(C)C(=O)C(C)(CCN2CCCN(S(C)(=O)=O)CC2)c2ccc(Cl)c(Cl)c2)ccc1OC(F)F` (stereo not shown) [Example 108, 2-(3,4-Dichloro-phenyl)-N-(4-difluoromethoxy-3-methoxy-benzyl)-4-(4-methanesulfonyl-[1,4]diazepan-1-yl)-2,N-dimethyl-butyramide] yielded a Ki of 89.5 nM. With `Cc1ccc(CN(C)C(=O)C(C)(CCN2CCCN(S(C)(=O)=O)CC2)c2ccc(Cl)c(Cl)c2)cc1` (stereo not shown) [Example 109, 2-(3,4-Dichloro-phenyl)-4-(4-methanesulfonyl-[1,4]diazepan-1-yl)-2,N-dimethyl-N-(4-methyl-benzyl)-butyramide] the Ki was 33.5 nM. `CN(C)c1ccc(CNC(=O)C(C)(CCN2CCCN(S(C)(=O)=O)CC2)c2ccc(Cl)c(Cl)c2)cc1` (stereo not shown) [Example 110, 2-(3,4-Dichloro-phenyl)-N-(4-dimethylamino-benzyl)-4-(4-methanesulfonyl-[1,4]diazepan-1-yl)-2-methyl-butyramide] showed a Ki of 291 nM. For `CN(Cc1ccc(Cl)c(C(F)(F)F)c1)C(=O)C(C)(CCN1CCCN(S(C)(=O)=O)CC1)c1ccc(Cl)c(Cl)c1` (stereo not shown) [Example 111, N-(4-Chloro-3-trifluoromethyl-benzyl)-2-(3,4-dichloro-phenyl)-4-(4-methanesulfonyl-[1,4]diazepan-1-yl)-2,N-dimethyl-butyramide], the Ki was 6.7 nM. For `CN(Cc1ccc(C(F)(F)F)c(F)c1)C(=O)C(C)(CCN1CCCN(S(C)(=O)=O)CC1)c1ccc(Cl)c(Cl)c1` (stereo not shown) [Example 112, 2-(3,4-Dichloro-phenyl)-N-(3-fluoro-4-trifluoromethyl-benzyl)-4-(4-methanesulfonyl-[1,4]diazepan-1-yl)-2,N-dimethyl-butyramide], the Ki was 16.2 nM. `CN(Cc1ccc(Cl)c(Cl)c1)C(=O)C(C)(CCN1CCCN(S(C)(=O)=O)CC1)c1ccc(Cl)c(Cl)c1` (stereo not shown) [Example 113, N-(3,4-Dichloro-benzyl)-2-(3,4-dichloro-phenyl)-4-(4-methanesulfonyl-[1,4]diazepan-1-yl)-2,N-dimethyl-butyramide] gave a Ki of 10.1 nM. Compound `CC(CCN1CCCN(S(C)(=O)=O)CC1)(C(=O)NCc1ccc(Cl)c(Cl)c1)c1ccc(Cl)c(Cl)c1` (stereo not shown) [Example 114, N-(3,4-Dichloro-benzyl)-2-(3,4-dichloro-phenyl)-4-(4-methanesulfonyl-[1,4]diazepan-1-yl)-2-methyl-butyramide] has a Ki of 39.9 nM. With `CC(CCN1CCCN(S(C)(=O)=O)CC1)(C(=O)NCc1cccc(OC(F)F)c1)c1ccc(Cl)c(Cl)c1` (stereo not shown) [Example 115, 2-(3,4-Dichloro-phenyl)-N-(3-difluoromethoxy-benzyl)-4-(4-methanesulfonyl-[1,4]diazepan-1-yl)-2-methyl-butyramide] the Ki was 183 nM. `CC(CCN1CCCN(S(C)(=O)=O)CC1)(C(=O)NCc1cc(F)ccc1C(F)(F)F)c1ccc(Cl)c(Cl)c1` (stereo not shown) [Example 116, 2-(3,4-Dichloro-phenyl)-N-(5-fluoro-2-trifluoromethyl-benzyl)-4-(4-methanesulfonyl-[1,4]diazepan-1-yl)-2-methyl-butyramide] was tested, and the Ki was 575 nM. With `CC(CCN1CCCN(S(C)(=O)=O)CC1)(C(=O)NCc1ccc(C(F)(F)F)cc1)c1ccc(Cl)c(Cl)c1` (stereo not shown) [Example 117, 2-(3,4-Dichloro-phenyl)-4-(4-methanesulfonyl-[1,4]diazepan-1-yl)-2-methyl-N-(4-trifluoromethyl-benzyl)-butyramide] the Ki was 49.6 nM. For `CC(CCN1CCCN(S(C)(=O)=O)CC1)(C(=O)NCc1cc(C(F)(F)F)ccc1F)c1ccc(Cl)c(Cl)c1` (stereo not shown) [Example 118, 2-(3,4-Dichloro-phenyl)-N-(2-fluoro-5-trifluoromethyl-benzyl)-4-(4-methanesulfonyl-[1,4]diazepan-1-yl)-2-methyl-butyramide], the Ki was 136 nM. `CC(NC(=O)C(C)(CCN1CCCN(S(C)(=O)=O)CC1)c1ccc(Cl)c(Cl)c1)c1ccc(Cl)cc1` (stereo not shown) [Example 119, N-[1-(4-Chloro-phenyl)-ethyl]-2-(3,4-dichloro-phenyl)-4-(4-methanesulfonyl-[1,4]diazepan-1-yl)-2-methyl-butyramide] gave a Ki of 121 nM. Work on `COc1cccc(CN(C)C(=O)C(C)(CCN2CCCN(S(C)(=O)=O)CC2)c2ccc(Cl)c(Cl)c2)c1` (stereo not shown) [Example 120, 2-(3,4-Dichloro-phenyl)-4-(4-methanesulfonyl-[1,4]diazepan-1-yl)-N-(3-methoxy-benzyl)-2,N-dimethyl-butyramide] yielded a Ki of 108 nM. `CN(Cc1ccccc1Cl)C(=O)C(C)(CCN1CCCN(S(C)(=O)=O)CC1)c1ccc(Cl)c(Cl)c1` (stereo not shown) [Example 121, N-(2-Chloro-benzyl)-2-(3,4-dichloro-phenyl)-4-(4-methanesulfonyl-[1,4]diazepan-1-yl)-2,N-dimethyl-butyramide] was tested, and the Ki was 31.2 nM. With `CC(NC(=O)C(C)(CCN1CCCN(S(C)(=O)=O)CC1)c1ccc(Cl)c(Cl)c1)c1ccc(Cl)c(Cl)c1` (stereo not shown) [Example 122, 2-(3,4-Dichloro-phenyl)-N-[1-(3,4-dichloro-phenyl)-ethyl]-4-(4-methanesulfonyl-[1,4]diazepan-1-yl)-2-methyl-butyramide] the Ki was 43.4 nM.
